Experiments:
[1] = molecular target: T1, rEP3 Receptor (UniProt P34980); test: Competitive Binding Assay of [3H]PGE2 to rEP3 Receptor; settings: 3 nM [3H]PGE2, membrane fraction, 1 hr at 30° C.; read-out: EP3, Ki
T1 sequence (P34980 1-365): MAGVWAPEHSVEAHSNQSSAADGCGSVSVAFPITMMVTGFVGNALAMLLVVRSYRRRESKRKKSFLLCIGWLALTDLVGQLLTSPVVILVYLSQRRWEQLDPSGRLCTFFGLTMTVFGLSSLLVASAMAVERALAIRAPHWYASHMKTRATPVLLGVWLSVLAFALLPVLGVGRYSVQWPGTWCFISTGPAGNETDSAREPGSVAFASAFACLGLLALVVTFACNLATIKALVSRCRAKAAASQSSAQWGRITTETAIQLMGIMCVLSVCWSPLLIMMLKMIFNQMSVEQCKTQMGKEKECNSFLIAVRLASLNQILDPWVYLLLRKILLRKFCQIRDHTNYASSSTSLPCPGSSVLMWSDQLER
Description: (§1) Competitive Binding Assay of [^3H]PGE2 to rEP1 or rEP3 Receptor
(§2) The cells were maintained in culture then harvested upon confluency. […] Incubations were conducted for 1 hr at 30° C. prior to separation of the bound and free radioligand by rapid filtration. Residual [^3H]PGE2 bound to the filter was quantitated by liquid scintillation counting. The Ki of a compound was calculated by the program of one site binding calculation of Prism.

[2] = molecular target: T2, rEP1 Receptor (UniProt P70597); test: Competitive Binding Assay of [3H]PGE2 to rEP1 Receptor; settings: 3 nM [3H]PGE2, membrane fraction, 1 hr at 30° C.; read-out: EP1, Ki
T2 sequence (P70597 1-405): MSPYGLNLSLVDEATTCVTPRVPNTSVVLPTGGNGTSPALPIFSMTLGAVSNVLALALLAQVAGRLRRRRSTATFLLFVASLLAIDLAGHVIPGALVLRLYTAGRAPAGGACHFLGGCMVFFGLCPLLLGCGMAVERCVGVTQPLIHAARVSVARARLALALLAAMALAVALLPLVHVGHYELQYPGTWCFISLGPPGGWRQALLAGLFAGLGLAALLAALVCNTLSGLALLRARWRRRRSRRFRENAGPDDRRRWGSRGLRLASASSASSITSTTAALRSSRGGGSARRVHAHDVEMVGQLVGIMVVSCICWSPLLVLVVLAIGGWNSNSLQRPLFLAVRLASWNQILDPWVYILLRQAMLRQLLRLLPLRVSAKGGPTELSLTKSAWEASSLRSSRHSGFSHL
Description: as §1
as §2, with “confluency. The membrane was prepared by two times of centrifugation (12,000× g for 15 min) following lysis of cells by polytron homogenization of 15 sec. in 10 volume of 20 mM Hepes pH 7.4 containing 1 mM EDTA, 10 mM MgCl2, 20 uM indomethacin at 4° C.” for “confluency.”

[3] = molecular target: T3, EP4 Receptor (Homo sapiens, UniProt P35408); test: EP4 Ki (table under competitive [3H]PGE2 binding assay)
T3 construct: host or cells: unnamed cultured cells, membrane fraction
Description: [Worded in the source for another target; this target is reported under the same test.] as §1
as §2, with “confluency. The membrane was prepared by two times of centrifugation (12,000× g for 15 min) following lysis of cells by polytron homogenization of 15 sec. in 10 volume of 20 mM Hepes pH 7.4 containing 1 mM EDTA, 10 mM MgCl2, 20 uM indomethacin at 4° C.” for “confluency.”

[4] = molecular target: T4, EP2 Receptor (Homo sapiens, UniProt P43116); test: EP2 Ki (table under competitive [3H]PGE2 binding assay)
T4 construct: host or cells: unnamed cultured cells, membrane fraction
T4 sequence (P43116 whole entry): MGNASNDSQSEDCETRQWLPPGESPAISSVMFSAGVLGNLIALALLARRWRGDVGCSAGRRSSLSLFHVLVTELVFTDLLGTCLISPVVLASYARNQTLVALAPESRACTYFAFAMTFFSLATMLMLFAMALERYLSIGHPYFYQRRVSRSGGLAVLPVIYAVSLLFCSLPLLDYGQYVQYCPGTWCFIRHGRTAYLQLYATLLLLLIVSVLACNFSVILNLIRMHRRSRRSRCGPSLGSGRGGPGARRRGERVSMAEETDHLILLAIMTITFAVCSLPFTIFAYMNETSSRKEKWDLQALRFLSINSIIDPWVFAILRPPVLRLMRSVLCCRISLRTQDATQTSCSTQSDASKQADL

T3 sequence (P35408 whole entry): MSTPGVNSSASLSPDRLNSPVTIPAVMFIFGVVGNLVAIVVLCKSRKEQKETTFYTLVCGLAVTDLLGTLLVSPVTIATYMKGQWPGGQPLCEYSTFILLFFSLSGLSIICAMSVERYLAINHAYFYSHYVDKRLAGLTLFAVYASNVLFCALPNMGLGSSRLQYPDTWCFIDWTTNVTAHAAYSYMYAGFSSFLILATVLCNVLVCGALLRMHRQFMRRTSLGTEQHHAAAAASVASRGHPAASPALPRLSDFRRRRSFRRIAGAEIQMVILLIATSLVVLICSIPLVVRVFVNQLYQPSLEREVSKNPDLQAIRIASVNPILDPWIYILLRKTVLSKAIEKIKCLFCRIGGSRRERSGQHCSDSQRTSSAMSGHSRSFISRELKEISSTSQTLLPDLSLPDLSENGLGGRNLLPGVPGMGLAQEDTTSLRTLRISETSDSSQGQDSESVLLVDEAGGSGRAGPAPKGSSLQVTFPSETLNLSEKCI

Ki [2] [µM] | Compound | Ki [1] [µM] | Ki [3] [µM] | Ki [4] [µM]
> 100 | CC1(C)C[C@H](/C=C/C(O)c2ccc(C(F)(F)F)o2)N(CCCCCCC(=O)O)C1=O (stereo partly drawn) [Compound 55, 7-{(R)-5-[(E)-3-hydroxy-3-(5-trifluoromethyl-furan-2-yl)-propenyl]-3,3-dimethyl-2-oxo-pyrrolidin-1-yl}-heptanoic acid] | > 100 | 0.007 | > 100
 | COCc1cccc(CC(O)/C=C/[C@H]2CC(C)(C)C(=O)N2CCCCCCC(=O)O)c1 (stereo partly drawn) [Compound 59, 7-{(R)-5-[(E)-3-Hydroxy-4-(3-methoxymethyl-phenyl)-but-1-enyl]-3,3-dimethyl-2-oxo-pyrrolidin-1-yl}-heptanoic acid] | > 100 | 0.07 | > 100
 | O=C(O)CCCCCCN1C(=O)CC[C@@H]1/C=C/C(O)c1cccc(Oc2ccc(Cl)cc2)c1 (stereo partly drawn) [Compound 74, 7-((R)-2-{(E)-3-[3-(4-chloro-phenoxy)-phenyl]-3-hydroxy-propenyl}-5-oxo-pyrrolidin-1-yl)-heptanoic acid] | 47 | 0.01 | 22.9
 | CCCCC[C@H](O)/C=C/[C@H]1CCC(=O)N1CCc1ccc(C(=O)O)cc1 [Compound 76, 4-{2-[(R)-2-((E)-3-Hydroxy-oct-1-enyl)-5-oxo-pyrrolidin-1-yl]-ethyl}-benzoic Acid] | 11 | 0.0012 | 0.13
 | Cc1cc(Cl)ccc1-c1cccc([C@H](O)CC[C@H]2CCC(=O)N2CCc2ccc(C(=O)O)cc2)c1 [Compound 81, 4-(2-{(S)-2-[(R)-3-(4′-Chloro-2′-methyl-biphenyl-3-yl)-3-hydroxy-propyl]-5-oxo-pyrrolidin-1-yl}-ethyl)-benzoic acid] | 54 | 0.00094 | 5.1
 | CCCCCC(O)/C=C/[C@H]1CCC(=O)N1CCc1ccc(C(=O)O)s1 (stereo partly shown) [Compound 82] | > 100 | 0.069 | 3.7

Source: patent US6900336B2, “8-aza-11-deoxy prostaglandin analogues” (Syntex (U.S.A.) LLC, priority 2001, dated 2005)
